In one series the target is T1, ETA Receptor (Rattus norvegicus, UniProt P26684).
T1 construct: endogenous in cells; host or cells: MMQ rat pituitary cells (membranes)
T1 sequence (P26684 21-426): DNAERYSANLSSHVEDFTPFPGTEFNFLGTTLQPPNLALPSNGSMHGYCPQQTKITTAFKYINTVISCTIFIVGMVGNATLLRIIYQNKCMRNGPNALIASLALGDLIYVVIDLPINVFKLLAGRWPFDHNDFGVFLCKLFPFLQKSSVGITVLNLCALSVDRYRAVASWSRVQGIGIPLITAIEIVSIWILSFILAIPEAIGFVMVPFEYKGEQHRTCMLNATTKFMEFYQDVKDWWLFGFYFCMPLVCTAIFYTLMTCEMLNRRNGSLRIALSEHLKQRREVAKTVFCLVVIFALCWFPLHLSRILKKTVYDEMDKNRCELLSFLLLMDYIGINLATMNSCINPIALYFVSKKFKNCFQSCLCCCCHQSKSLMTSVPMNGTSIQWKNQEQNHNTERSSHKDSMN
Nature of the series: [125I]ET-1 binding to membranes from MMQ cells (ETA receptor binding assay, Table 4). Conditions: test compound at 1 μM, 0.1 nM [125I]ET-1, MMQ cell membranes, 4 hours at 25° C.

A short description of series [1]: Determination of plasma protein binding (ultrafiltration, HPLC). Conditions: fresh plasma, 1 hour at room temperature. Type of series: in vitro ADME. On the set-up: fraction unbound at 1 h: dose or concentration left out as unconfirmed. How it is done: A stock solution of the test compound in 50% ethanol (2 mg/mL) was diluted 10× into PBS. A 0.4 mL sample of this secondary stock solution was added to 3.6 mL of fresh plasma, and incubated at room temperature for 1 hour. A 1 mL sample of this incubation mixture was transferred to a Centrifree ultrafiltration tube. The sample was centrifuged in a fixed-bucket rotor for approximately 2 min and the filtrate was discarded. The sample was centrifuged for another 15–30 min. A 100 μL sample of the ultrafiltrate was transfered to a micro HPLC sample vial containing […] of HPLC mobile phase and mixed thoroughly. A 50 μL sample was injected and the concentration of drug in the ultrafiltrate was determined by HPLC analysis compared against a standard sample prepared identically in the absence of plasma. Ultrafiltrate concentrations are calculated from a calibration curve. Protein binding is calculated according to the equation: % PB=[1−(Cu/Ci)]*100%
where Cu is the ultrafiltrate concentration and Ci is the initial plasma concentration.

The target of series [2] is T2, ETB receptors of porcine cerebellar tissues (pET-B) (Sus scrofa, UniProt P35463).
T2 construct: porcine cerebellar tissues (known to contain ETB receptors); from tissue; host or cells: porcine cerebellum (membranes)
T2 sequence (P35463 27-443): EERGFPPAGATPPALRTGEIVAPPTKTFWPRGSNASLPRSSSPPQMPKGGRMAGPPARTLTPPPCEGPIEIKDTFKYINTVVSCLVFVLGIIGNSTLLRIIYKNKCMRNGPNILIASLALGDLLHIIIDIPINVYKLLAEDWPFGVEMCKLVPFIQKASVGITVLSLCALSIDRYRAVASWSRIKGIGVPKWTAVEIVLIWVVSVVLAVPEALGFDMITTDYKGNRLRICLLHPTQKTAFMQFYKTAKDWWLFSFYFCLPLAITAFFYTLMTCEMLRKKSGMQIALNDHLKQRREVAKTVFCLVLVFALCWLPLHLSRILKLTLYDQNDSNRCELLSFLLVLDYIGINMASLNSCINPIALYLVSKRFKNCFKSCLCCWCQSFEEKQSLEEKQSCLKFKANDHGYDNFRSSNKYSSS
Briefly: ETA/ETB selectivity: (125I)ET-3 competition binding, ETB assay in porcine cerebellum membranes (pET-B). To be noted: porcine cerebellum membranes; 0.1 nM (125I)ET-3; read-out: pET-B IC50. How it is done: (§1) The mixture was centrifuged at 1000×g for 10 min. The supernatant was collected and centrifuged at 60,000×g for 60 min. The precipitate was resuspended in 20 mM Tris, pH 7.4 containing protease inhibitor and centrifuged again. The final membrane pellet was resuspended in 20 mM Tris, pH 7.4 containing protease inhibitors and stored at −80° C. until used. Protein content was determined by the Bio-Rad dye-binding protein assay.
(§2) Binding assays were performed in 96-well microtiter plates pretreated with 0.1% BSA. […] After incubation, unbound ligands were separated from bound ligands by a vacuum filtration method using glass-fiber filter strips in PHD cell harvesters (Cambridge Technology, Inc., MA), washing the filter strips three times with saline (1 mL). Nonspecific binding was determined in the presence of 1 μM ET-1. IC50 values are calculated using an average of at least two separate determinations.

The target of series [3] is T3, ETA receptor in MMQ cells (rET-A) (Rattus norvegicus, UniProt P26684).
T3 construct: endogenous in cells; host or cells: MMQ rat pituitary cells (membranes)
T3 sequence (P26684 21-426): T1 sequence (P26684 21-426)
Nature of the series: ETA/ETB selectivity: (125I)ET-1 competition binding, ETA assay in MMQ cell membranes (rET-A). Conditions: MMQ cell membranes; for IC50: 0.1 nM (125I)ET-1, read-out: rET-A IC50. How it is done: as §1, §2

Series [4] has as its target T4, human ETA receptor (Homo sapiens, UniProt P25101).
T4 construct: expressed in transfected cells; host or cells: CHO cells, permanently transfected
T4 sequence (P25101 21-427): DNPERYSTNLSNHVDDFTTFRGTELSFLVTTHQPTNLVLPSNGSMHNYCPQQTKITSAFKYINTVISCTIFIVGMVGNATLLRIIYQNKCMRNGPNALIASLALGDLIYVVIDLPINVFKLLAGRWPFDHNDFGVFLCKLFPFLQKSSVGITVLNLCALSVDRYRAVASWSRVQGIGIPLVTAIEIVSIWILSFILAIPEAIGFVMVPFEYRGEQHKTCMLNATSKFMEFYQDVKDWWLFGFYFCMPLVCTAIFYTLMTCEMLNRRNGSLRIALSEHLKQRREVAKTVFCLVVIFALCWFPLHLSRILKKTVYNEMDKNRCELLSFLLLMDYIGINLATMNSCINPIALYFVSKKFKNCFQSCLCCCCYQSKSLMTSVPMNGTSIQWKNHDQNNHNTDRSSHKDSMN
Briefly: ETA/ETB selectivity: (125I)ET-1 competition binding, CHO cells transfected with human ETA receptor (hET-A). On the procedure:
as §1, §2

In another series the target is T5, human ETB receptor (Homo sapiens, UniProt P24530).
T5 construct: expressed in transfected cells; host or cells: CHO cells, permanently transfected
T5 sequence (P24530 27-442): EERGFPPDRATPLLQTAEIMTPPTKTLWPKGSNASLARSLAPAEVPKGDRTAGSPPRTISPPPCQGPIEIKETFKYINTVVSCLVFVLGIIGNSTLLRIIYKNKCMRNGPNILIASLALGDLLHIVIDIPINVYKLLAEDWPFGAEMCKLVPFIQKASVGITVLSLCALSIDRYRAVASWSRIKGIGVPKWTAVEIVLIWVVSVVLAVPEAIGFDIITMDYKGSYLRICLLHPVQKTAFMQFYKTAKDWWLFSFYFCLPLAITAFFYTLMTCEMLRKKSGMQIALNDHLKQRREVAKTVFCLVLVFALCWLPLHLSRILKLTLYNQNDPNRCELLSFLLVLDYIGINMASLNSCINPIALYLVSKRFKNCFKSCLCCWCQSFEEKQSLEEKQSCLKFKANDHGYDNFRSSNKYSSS
Nature of the series: ETA/ETB selectivity: (125I)ET-3 competition binding, CHO cells transfected with human ETB receptor (hET-B). On the procedure: MMQ cells, porcine cerebellar tissues (known to contain ETB receptors) and chinese hamster ovary cells (CHO) permanently transfected with the human ETA or ETB receptor were homogenized in 25 ml of 10 mM Hepes (pH 7.4) containing 0.25 M sucrose and a protease inhibitor [50 mM EDTA, 0.1 mM PMSF, 5 μg/ml Pepstatin A, and 0.025% Bacitracin] using a micro ultrasonic cell disrupter. The mixture was centrifuged at 1000×g for 10 min. The supernatant was collected and centrifuged at 60,000×g for 60 min. The precipitate was resuspended in 20 mM Tris, pH 7.4 containing protease inhibitor and centrifuged again. The final membrane pellet was resuspended in 20 mM Tris, pH 7.4 containing protease inhibitors and stored at −80° C. until used. Protein content was determined by the Bio-Rad dye-binding protein assay.
Binding assays were performed in 96-well microtiter plates pretreated with 0.1% BSA. Membranes prepared from cells were diluted 100 fold in Buffer B (20 mM Tris, 100 mM NaCl, 10 mM MgCl2, pH 7.4, with 0.2% BSA, 0.1 mM PMSF, 5 μg/mL Pepstatin A, 0.025% bacitracin, and 50 mM EDTA) to a final concentration of 0.2 mg/mL of protein. In competition binding studies, membranes (0.02 mg) were incubated with 0.1 nM of (^125I)ET-1 (for ETA assay in MMQ or CHO cells transfected with human ETA receptor) or (^125I)ET-3 (for ETB assay in porcine cerebellum or CHO cells transfected with human ETB receptor) in Buffer B (final volume: 0.2 mL) in the presence of increasing concentrations of the test compound for 3 hours at 25° C. After incubation, unbound ligands were separated from bound ligands by a vacuum filtration method using glass-fiber filter strips in PHD cell harvesters (Cambridge Technology, Inc., MA), washing the filter strips three times with saline (1 mL). Nonspecific binding was determined in the presence of 1 μM ET-1. IC50 values are calculated using an average of at least two separate determinations.

Series [5] relates to ET-1-induced phosphatidylinositol hydrolysis in MMQ cells. Nature of the series: Determination of ET-1-induced phosphatidylinositol (PI) hydrolysis in MMQ cells. Format: cell-based, rat. To be noted: 1 nM ET-1 challenge, read-out: IC50 (inhibition of ET-induced increase in PI turnover). How it is done:
MMQ cells (0.4×10^6 cells/mL) were labeled with 10 μCi/mL of [^3H]myo-inositol in RPMI for 16 hours. The cells were washed with PBS, then incubated with Buffer A containing protease inhibitors and 10 mM LiCl for 60 minutes. The cells were then incubated with test compounds for 5 minutes, and then challenged with 1 nM ET-1. ET-1 challenge was terminated by the addition of 1.5 mL of 1:2 (v/v) chloroform-methanol. Total inositol phosphates were extracted after adding chloroform and water to give final proportions of 1:1:0.9 (v/v/v) chloroform-methanol-water as described by Berridge (Biochem. J. 206 587–595 (1982)). The upper aqueous phase (1 mL) was retained and a small portion (100 μL) was counted. The rest of the aqueous sample was analyzed by batch chromatography using anion-exchange resin AG1-X8 (Bio-Rad). […] The results of the above study clearly indicate that the compounds act as functional ET antagonists.

The target of series [6] is T4, human ETA receptor. Nature of the series: Albumin-induced binding shift study: [125I]ET-1 binding in presence of human serum albumin. To be noted: 0%, 0.2%, 1% or 5% HSA. On the procedure: Protocol for Albumin-induced binding shift studies: Binding assays were performed in 96-well microtiter plates precoated with 0.1% BSA unless otherwise indicated. Membranes were diluted in Buffer B (20 mM Tris, 100 mM NaCl, 10 mM MgCl2, pH 7.4, 0.1 mM PMSF, […] Pepstatin A, 0.025% bacitracin and 3 mM EDTA) to a final concentration of 0.05 mg/ml of protein. Varying concentrations of human serum albumin (HSA) were added as indicated. In competition studies, membranes were incubated with 0.1 nM of [^125I]ET in Buffer B (final volume: 0.2 ml) in the presence of increasing concentrations of unlabeled test ligands for 4 hours at 25° C. After incubation, unbound ligands were separated from bound ligands by vacuum filtration using glass-fiber filter strips in PHD cell harvesters (Cambridge Technology, Inc., Watertown, MA), followed by washing the filter strips with saline (1 ml) for three times. Nonspecific binding was determined in the presence of 1 μM ET-1. Inhibition of [^125]ET-1 binding to human ETA receptor by ETA antagonists. Each curve was determined in the presence of either 0%, 0.2%, 1%, or 5% HSA, and assays were performed as described above. The results are expressed as % of control binding, with [^125I]ET-1 binding in the absence of antagonist defining 100%. Each point represents the mean (±S.D.) of three determinations.

Series [7] is described as follows: pH-solubility profile: maximum solubility in aqueous media at varying pH. Type of series: physicochemical. From the text:
Such increased aqueous solubility, coupled with the enhanced potency resulting from decreased protein binding, might make such compounds preferred for development as parenteral agents.

The structures appear in SMILES notation. Where two headings read alike, the source gives them in different places.

As for `CCCCN(C(=O)CN1CC(c2ccc3c(c2)OCO3)C(C(=O)O)C1c1ccc(OC)cc1)c1cccc(CN)c1` (stereo not drawn) [compound 532], the inhibition at 1 µM on ETA Receptor (read-out: % Inhibition of ETA at 1 μM) amounted to 100%. Further, in series [1] (read-out: percent of bound compound (plasma protein binding, % PB) (converted)), the fraction unbound at 1 h is 0.032. Also, the IC50 was found to be 3200 nM in series [2] and 5.1 nM in [3].
In the case of `CC=CC(C)(C)CC1C(C(=O)O)C(c2cc(OC)c3c(c2)OCO3)CN1CC(=O)N(CCCC)CCCC` (stereo not drawn) [Example 553], the IC50 on human ETA receptor [4] was determined as 0.29 nM; in series [2], 42400 nM; in series [3] it was 0.26 nM; at human ETB receptor it was 39500 nM; in series [5] (Rattus norvegicus), 0.4 nM. In series [3] (1 μM test compound), this molecule yielded an inhibition at 1 µM of 100%.
`CCCCCS(=O)(=O)N(CCC)CCN1C[C@H](c2ccc3c(c2)OCO3)[C@@H](C(=O)O)[C@@H]1c1ccc(OC)c(F)c1` [Example 534]: the IC50 in series [2] turned out to be 0.36 nM; in series [5] (Rattus norvegicus) it was 50 nM.
Take `CCCCN(CCCC)C(=O)CN1C[C@H](c2ccc3c(c2)OCO3)[C@@H](C(=O)O)[C@@H]1c1ccc(OC)cc1` (relative stereo) [Example 43, trans,trans-2-(4-Methoxyphenyl)-4-(1,3-benzodioxol-5-yl)-1-(N,N-di(n-butyl)aminocarbonylmethyl)-pyrrolidine-3-carboxylic acid]: at ETA Receptor, the “% Inhibition of ETA at 1 μM” value stood at 99.2%. Moreover, the “percent of bound compound (plasma protein binding, % PB)” value in series [1] is greater than 98%; in series [1] (listed as Example #43), greater than 99.5%. Besides, the “shift of the binding curve in the presence of increasing albumin levels” value on human ETA receptor [6] is listed as “rightward shift of the binding curve (toward decreasing potency)”. The maximum solubility in series [7] (pH 5.1, about 25° C.) worked out at 80 µg/mL; in [7] (pH 6.5, about 25° C.) it was 510 µg/mL; in series [7] (pH 7.1, about 25° C.) it was 990 µg/mL; in [7] (pH 7.6, about 25° C.), 1140 µg/mL. The IC50 in [5] was found to be 0.1 nM.

For the origin of these results see US7208517B1, “Endothelin antagonists” (Abbott Labortories, priority 1994, dated 2007).
